Assay results published in ChEMBL document CHEMBL1201862, “PubChem BioAssay data set” (2004).
Active and inactive are the calls of the source.

How the values were obtained:
[1] = Dd2 parasite growth inhibition in erythrocytes – SYBR Green, dry powder samples, set 9, dose response (AID 1159568); format: functional, cell-based
[2] = P. falciparum Dd2 growth inhibitors, dose response, SYBR Green, cherry-picked samples (AID 1159567); format: functional, cell-based
[3] = toxicity to human hepatoma HepG2 cells – cell-based, cherry-picked samples, cytotoxicity control, dose response (AID 1159577); format: functional
[4] = target: Oxysterols receptor LXR-beta (Homo sapiens, UniProt P55055); format: functional, cell-based;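 also: agonist activity at LXR measured by a cell-based luminescence readout across a dose range, run as a counterscreen for daf-12 agonists; HEK293 cells with Gal4-LXR fusion and GAL4-driven luciferase reporter; potency for activation of Gal4-LXR reporter so compounds are agonists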
Sequence of Oxysterols receptor LXR-beta (P55055 whole entry, the tested form may be a part): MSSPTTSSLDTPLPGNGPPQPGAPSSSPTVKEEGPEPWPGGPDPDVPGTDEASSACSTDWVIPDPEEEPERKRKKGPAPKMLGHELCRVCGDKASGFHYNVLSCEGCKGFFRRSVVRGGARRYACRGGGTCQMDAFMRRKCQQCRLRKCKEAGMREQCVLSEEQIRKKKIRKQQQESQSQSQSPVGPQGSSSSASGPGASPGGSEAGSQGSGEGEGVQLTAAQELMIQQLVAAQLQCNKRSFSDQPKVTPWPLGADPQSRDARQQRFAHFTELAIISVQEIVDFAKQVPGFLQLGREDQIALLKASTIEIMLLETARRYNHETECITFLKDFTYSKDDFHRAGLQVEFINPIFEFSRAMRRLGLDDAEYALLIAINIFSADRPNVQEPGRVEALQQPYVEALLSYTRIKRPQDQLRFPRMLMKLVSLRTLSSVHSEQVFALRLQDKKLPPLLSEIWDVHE

[5] = target: Luciferin 4-monooxygenase (Photinus pyralis, UniProt P08659); test: inhibition of purified Photinus pyralis luciferase – biochemical, luminescence, dose response (AID 1891)
Sequence of Luciferin 4-monooxygenase (P08659 whole entry): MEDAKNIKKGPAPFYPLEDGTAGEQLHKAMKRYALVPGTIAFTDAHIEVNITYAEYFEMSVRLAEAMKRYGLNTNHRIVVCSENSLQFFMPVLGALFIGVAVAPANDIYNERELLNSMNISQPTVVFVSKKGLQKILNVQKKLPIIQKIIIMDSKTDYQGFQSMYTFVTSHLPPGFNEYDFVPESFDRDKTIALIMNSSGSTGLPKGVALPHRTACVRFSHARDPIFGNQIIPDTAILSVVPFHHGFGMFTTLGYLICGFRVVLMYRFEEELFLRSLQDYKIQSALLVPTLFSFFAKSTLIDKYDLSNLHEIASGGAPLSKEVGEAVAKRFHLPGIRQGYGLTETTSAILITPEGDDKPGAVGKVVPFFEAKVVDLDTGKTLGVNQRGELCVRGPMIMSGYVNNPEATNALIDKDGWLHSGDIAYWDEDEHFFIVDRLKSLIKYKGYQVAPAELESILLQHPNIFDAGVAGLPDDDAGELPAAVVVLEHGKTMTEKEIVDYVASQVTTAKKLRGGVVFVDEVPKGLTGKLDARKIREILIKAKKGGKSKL

[6] = Luminescence Cell-Based Dose Confirmation HTS to Identify Inhibitors of Platelet Dense Granule Release. [Related pubchem assays: 1663 (Primary HTS), 1678 (Summary of Project)]; format: functional
[7] = target: Disintegrin and metalloproteinase domain-containing protein 17 (Homo sapiens, UniProt P78536); test: exosite inhibitors of ADAM17, dose response, biochemical (AID 743260)
Sequence of Disintegrin and metalloproteinase domain-containing protein 17 (P78536 whole entry, the tested form may be a part): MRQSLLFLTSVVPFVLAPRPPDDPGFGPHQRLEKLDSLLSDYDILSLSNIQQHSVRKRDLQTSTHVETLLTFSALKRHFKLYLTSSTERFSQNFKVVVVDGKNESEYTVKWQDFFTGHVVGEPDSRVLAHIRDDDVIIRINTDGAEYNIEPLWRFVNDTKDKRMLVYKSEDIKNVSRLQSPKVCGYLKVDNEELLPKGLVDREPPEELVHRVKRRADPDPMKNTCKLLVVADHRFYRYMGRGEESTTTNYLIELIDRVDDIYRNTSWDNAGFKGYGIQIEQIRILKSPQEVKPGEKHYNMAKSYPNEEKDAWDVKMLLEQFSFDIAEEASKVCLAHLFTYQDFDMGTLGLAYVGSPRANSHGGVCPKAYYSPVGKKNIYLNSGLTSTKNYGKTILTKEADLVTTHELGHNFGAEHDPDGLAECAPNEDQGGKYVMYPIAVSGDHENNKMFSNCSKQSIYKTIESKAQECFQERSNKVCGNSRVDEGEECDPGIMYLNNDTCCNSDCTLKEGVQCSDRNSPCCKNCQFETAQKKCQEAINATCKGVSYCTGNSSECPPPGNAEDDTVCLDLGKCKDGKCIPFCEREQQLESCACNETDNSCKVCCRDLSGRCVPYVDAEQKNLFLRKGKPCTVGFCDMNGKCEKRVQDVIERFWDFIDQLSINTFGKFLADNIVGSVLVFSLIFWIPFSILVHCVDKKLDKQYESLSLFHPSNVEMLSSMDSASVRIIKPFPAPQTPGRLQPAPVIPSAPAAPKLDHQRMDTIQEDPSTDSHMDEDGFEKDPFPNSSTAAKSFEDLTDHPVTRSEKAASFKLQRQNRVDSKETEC

[8] = inhibition of ADAM10 peptide cleavage – biochemical, FRET peptide substrate, recombinant human ADAM10, selectivity assay for ADAM17 exosite inhibitor project, dose response (AID 743259);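 also: ADAM10 enzyme cleaving a FRET peptide substrate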
Fatty acid synthase = Fatty acid synthase (Homo sapiens, UniProt P49327); test: inhibition of human FAS-TE enzyme activity – biochemical, endpoint fluorescence intensity, powder samples, SAR follow-up (AID 652164); format: functional
Sequence of Fatty acid synthase (P49327 whole entry): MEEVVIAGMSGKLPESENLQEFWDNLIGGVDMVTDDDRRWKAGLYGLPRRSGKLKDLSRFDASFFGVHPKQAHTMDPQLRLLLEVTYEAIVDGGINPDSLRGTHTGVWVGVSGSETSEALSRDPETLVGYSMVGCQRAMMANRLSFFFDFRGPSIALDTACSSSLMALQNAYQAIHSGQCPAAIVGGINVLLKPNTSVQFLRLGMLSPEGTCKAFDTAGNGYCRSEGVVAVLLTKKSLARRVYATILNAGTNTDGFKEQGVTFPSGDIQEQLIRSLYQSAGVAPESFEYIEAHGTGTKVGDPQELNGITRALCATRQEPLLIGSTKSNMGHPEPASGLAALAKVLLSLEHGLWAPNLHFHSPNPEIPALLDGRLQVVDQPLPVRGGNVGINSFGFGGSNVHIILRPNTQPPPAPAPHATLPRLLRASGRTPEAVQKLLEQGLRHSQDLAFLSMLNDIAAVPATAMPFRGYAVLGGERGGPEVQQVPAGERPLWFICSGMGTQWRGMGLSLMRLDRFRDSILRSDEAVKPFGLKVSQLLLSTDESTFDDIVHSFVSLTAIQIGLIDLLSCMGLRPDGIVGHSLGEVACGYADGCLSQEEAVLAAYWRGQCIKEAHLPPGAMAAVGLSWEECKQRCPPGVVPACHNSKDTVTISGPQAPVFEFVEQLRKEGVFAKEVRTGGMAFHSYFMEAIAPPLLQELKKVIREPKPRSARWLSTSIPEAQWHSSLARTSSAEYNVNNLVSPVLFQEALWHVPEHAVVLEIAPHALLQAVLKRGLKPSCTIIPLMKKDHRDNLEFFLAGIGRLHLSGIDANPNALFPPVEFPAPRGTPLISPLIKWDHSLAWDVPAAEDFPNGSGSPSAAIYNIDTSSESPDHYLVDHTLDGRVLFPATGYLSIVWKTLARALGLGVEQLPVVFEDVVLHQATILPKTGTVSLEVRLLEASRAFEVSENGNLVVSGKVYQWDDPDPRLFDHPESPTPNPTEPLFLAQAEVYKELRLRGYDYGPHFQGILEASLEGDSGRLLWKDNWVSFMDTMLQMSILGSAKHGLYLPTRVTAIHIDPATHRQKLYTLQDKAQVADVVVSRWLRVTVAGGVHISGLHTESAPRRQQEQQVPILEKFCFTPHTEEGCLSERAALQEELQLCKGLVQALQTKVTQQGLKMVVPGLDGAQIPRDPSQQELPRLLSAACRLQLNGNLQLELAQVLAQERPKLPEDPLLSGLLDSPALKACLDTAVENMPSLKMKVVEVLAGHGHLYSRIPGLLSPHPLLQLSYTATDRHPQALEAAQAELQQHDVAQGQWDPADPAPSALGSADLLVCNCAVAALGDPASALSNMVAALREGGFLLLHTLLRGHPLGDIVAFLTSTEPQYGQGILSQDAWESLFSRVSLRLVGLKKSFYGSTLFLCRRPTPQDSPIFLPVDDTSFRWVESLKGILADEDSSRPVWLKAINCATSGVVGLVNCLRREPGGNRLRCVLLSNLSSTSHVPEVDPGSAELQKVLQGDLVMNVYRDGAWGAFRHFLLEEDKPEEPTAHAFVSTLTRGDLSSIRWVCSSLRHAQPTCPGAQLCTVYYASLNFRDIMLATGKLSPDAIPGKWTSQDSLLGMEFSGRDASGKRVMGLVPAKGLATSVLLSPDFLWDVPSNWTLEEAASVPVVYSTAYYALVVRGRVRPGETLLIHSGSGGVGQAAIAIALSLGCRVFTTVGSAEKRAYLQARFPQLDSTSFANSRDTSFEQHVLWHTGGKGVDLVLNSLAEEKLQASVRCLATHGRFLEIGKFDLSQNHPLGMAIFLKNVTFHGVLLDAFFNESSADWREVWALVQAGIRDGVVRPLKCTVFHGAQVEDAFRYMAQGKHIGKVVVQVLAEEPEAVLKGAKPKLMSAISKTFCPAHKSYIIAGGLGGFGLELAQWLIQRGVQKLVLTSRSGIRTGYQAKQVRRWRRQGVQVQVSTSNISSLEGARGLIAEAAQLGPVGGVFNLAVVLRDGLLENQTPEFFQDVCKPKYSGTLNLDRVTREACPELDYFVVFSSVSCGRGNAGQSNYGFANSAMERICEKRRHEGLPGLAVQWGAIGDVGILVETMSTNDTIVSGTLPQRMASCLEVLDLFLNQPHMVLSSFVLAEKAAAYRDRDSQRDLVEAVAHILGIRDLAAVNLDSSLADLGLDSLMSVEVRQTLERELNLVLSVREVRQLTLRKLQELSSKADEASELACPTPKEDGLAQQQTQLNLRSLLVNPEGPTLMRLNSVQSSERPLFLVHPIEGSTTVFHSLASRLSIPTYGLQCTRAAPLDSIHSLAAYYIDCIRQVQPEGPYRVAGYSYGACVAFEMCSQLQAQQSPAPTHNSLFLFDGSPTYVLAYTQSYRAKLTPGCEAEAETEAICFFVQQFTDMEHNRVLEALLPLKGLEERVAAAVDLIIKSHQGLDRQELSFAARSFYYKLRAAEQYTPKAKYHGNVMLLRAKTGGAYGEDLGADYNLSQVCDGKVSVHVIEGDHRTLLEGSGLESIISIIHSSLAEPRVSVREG

[9] = growth inhibition of yeast DHODH-expressing 3D7 parasites – SYBR Green, dry powder samples, dose response (AID 1159570); format: functional, cell-based;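 also: parasite growth measured after 72 hours of compound exposure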
[10] = toxicity to human HepG2 hepatoma cells – cell-based, plate reader, dry powder samples, cytotoxicity control, dose response (AID 1159569); format: functional;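 also: inhibitor potency with signal falling toward the positive control level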
[11] = Dd2 malaria parasite growth inhibition potency – SYBR Green, dry powder samples, dose response (AID 1159566); format: functional, cell-based;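 also: potency for growth inhibition with lower SYBR green DNA signal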
[12] = growth inhibition of PfATP4-mutant resistant parasites – NITD609-resistant line, SYBR Green, dry powder, dose response (AID 1159571); format: functional, cell-based;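 also: parasites synchronized at ring stage by sorbitol before testing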
[13] = A549 cell cytotoxicity, dose response, cytotoxicity control, plate reader, cherry-pick, antagonist series (AID 743412); format: functional, cell-based
[14] = inhibition of bursicon-driven LGR2 cAMP signaling – cell-based, HEK293, CRE-luciferase reporter, cherry pick, dose response (AID 743342); format: functional
[15] = blockade of melanocortin 4 receptor signaling – cell-based, plate reader, cherry pick, counter-screen for LGR2 antagonist project, dose response (AID 743444); format: functional;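 also: transfected HEK 293 cells stimulated with alpha-MSH peptide; potency of inhibitors of the alpha-MSH evoked signal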
[16] = viability loss in HEK293 cells – cell-based, plate reader, cherry-picked samples, cytotoxicity control, dose response (AID 743446); format: functional
cells [17] = conditions: HEK293
[18] = target: T1, Corticotropin-releasing factor receptor 2/Corticotropin-releasing factor-binding protein (Homo sapiens, UniProt P24387+Q13324); test: Dose Response confirmation of uHTS hits for small molecule antagonists of the CRF-binding protein and CRF-R2 receptor complex.; format: functional; conditions: read-out: IC50_Mean
T1 sequence (Q13324 whole entry): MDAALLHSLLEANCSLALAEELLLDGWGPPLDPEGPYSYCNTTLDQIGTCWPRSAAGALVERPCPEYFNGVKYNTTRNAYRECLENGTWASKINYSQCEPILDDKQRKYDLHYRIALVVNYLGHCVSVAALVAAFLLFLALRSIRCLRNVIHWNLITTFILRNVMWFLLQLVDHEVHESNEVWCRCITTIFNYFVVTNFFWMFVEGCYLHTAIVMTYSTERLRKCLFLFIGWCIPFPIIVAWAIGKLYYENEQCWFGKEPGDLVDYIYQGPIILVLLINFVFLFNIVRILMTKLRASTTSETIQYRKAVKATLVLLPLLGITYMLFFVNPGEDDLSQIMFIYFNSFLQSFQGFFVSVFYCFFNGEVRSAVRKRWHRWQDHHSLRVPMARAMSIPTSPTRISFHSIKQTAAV
T1 sequence (P24387 whole entry): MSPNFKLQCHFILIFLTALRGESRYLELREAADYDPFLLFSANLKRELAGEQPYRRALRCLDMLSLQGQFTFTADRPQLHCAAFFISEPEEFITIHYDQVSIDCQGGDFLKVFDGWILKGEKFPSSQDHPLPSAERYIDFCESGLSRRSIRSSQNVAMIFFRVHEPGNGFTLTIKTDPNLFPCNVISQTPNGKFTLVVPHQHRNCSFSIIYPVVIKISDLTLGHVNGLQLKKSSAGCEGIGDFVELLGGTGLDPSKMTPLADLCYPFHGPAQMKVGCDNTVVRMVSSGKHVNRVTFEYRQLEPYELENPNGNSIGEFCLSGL

[19] = target: T1, Corticotropin-releasing factor receptor 2/Corticotropin-releasing factor-binding protein; test: activators of CRF receptor 2 with binding protein – uHTS hits, confirmation (AID 602473); format: functional; conditions: read-out: EC50_Mean
[20] = rise of 2N DNA cells, HeLa – IC50, dose response (AID 1117349); format: functional, cell-based
[21] = rise of 4N DNA cells, HeLa – IC50, dose response (AID 1117351); format: functional, cell-based
[22] = toxicity to HepG2 liver cells – cell-based, plate reader, dry powder, set 6, cytotoxicity control, dose response (AID 743311); format: functional
cells [23] = conditions: HEK293; remark: listed apart in the source

Q: For `C(=C\c1ccc([C@H]2[C@@H]3CN(Cc4nccs4)C[C@H]2N3)cc1)/c1ccccc1`, which AC50 [1] is on record?
A: Its AC50 is 11.2 µM (active).

Q: Which AC50 [2] does the source give for `Cc1cccc(-c2ccc([C@@H]3[C@@H]4CN(C(=O)C5CCCC5)C[C@H]3N4)cc2)c1` here?
A: Its AC50 is 4.39 µM (active).

Q: And the AC50 [3]?
A: Its AC50 is 10.7 µM (active).

Q: With `Cc1ccc(-c2csc(NC(=O)/C=C/c3ccco3)c2C(=O)O)cc1` as the molecule, how does the EC50 [4] read?
A: Its EC50 is > 67.6 µM (inactive).

Q: For `Cc1ccccc1-c1noc(-c2ccc(O)cc2)n1`, which EC50 [5] is on record?
A: The EC50 was 0.122 µM (active).

Q: What about the EC50 [6] of the same molecule?
A: The EC50 was 0.623 µM (active).

Q: And the IC50 [7]?
A: Its IC50 is > 69.5 µM (inactive).

Q: What about the IC50 [8] of the same molecule?
A: Its IC50 is 48.8 µM (inactive).

Q: With `CCN(CC)S(=O)(=O)c1ccc(-c2csc(NC(=O)C3CCC3)n2)cc1` as the molecule, how does the IC50 (Fatty acid synthase) read?
A: Its IC50 is 0.985 µM (active).

Q: With `C/C=C/c1ccc([C@H]2[C@@H](CO)N(CC3CCCC3)[C@@H]2CNC(=O)NC(C)C)cc1` as the molecule, how does the AC50 [9] read?
A: Its AC50 is 2.73 µM (active).

Q: What about the AC50 [10] of the same molecule?
A: The AC50 was 25.4 µM (active).

Q: What about the AC50 [2] of the same molecule?
A: Its AC50 is 2.71 µM (active).

Q: And the AC50 [11]?
A: The AC50 was 1.91 µM (active).

Q: And the AC50 [12]?
A: The AC50 was 2.41 µM (active).

Q: For `COc1ccc(S(=O)(=O)N(C)C[C@@H]2OCCCC[C@H](C)Oc3ccc(NS(=O)(=O)c4ccc(F)cc4)cc3C(=O)N([C@@H](C)CO)C[C@@H]2C)cc1`, which AC50 [13] is on record?
A: Its AC50 is 26 µM (active).

Q: What about the AC50 [14] of the same molecule?
A: Its AC50 is 58.8 µM (active).

Q: What about the AC50 [15] of the same molecule?
A: The AC50 was 42.7 µM (active).

Q: And the AC50 [16]?
A: The AC50 was > 52 µM (inactive).

Q: With `CNC(=O)c1ccc(NC(=O)c2cccc(C(F)(F)F)c2)cc1` as the molecule, how does the AC50 (cells [17]) read?
A: Its AC50 is 49.8 µM (active).

Q: Which IC50 [18] does the source give for `Nc1nc(F)nc2c1ncn2[C@@H]1O[C@H](CO)[C@@H](O)[C@@H]1O` [FLUDARABINE] here?
A: Its IC50 is > 47.1 µM (inactive).

Q: What about the EC50 [19] of the same molecule?
A: Its EC50 is > 53 µM (inactive).

Q: What about the IC50 [20] of the same molecule?
A: Its IC50 is > 10 µM (inactive).

Q: And the IC50 [21]?
A: Its IC50 is > 10 µM (inactive).

Q: What does the source list for `Cc1ccc(C(C)C)c(OCCn2c(N)nc3ccccc32)c1`?
A: AC50 [22]: 4.5 µM (active); AC50 (cells [23]): 19.1 µM (active)
